{"source": "patent US20060252930A1", "about": "(priority 2003, published 2006)", "key": {"Solubility in solvents": {"test": "Solubility in solvents", "type": "physicochemical"}, "[1]": {"tested_on": "Candida albicans ATCC 64548", "test": "Enhancing activity of azole antifungal agent, yeast susceptibility test NCCLS M27-A", "type": "cell-based", "conditions": "for enhancing action of the activity of azole antifungal agent (in words): C. albicans ATCC64548, summary statement; for Ratio (enhancing activity): IC50 without addition set as 1.0", "experimental": "(§1) Candida albicans ATCC 64548, fluconazole resistant Candida albicans ATCC 64550 and Aspergillus niger ATCC 6275 were used as test organisms.\n(§2) Enhancing activity of azole antifungal agent on Candida albicans ATCC 64548 and ATCC 64550 was determined by yeast susceptibility test method, National Committee for Clinical Standard (NCCLS) Standard Method M27-A. Each suspension of inoculating strain was spread over YM agar medium (0.5% yeast extract, 0.5% malt extract, 0.5% peptone, 1% glucose and 1.5% agar) and cultured at 35° C. for 36 hours. Five grown colonies with a diameter 1 mm or more were collected and the colonies were suspended in physiological saline 5 ml. The suspension was further diluted with physiological saline to prepare the test microorganism suspension having McFarland transmittance 0.5. RPMI 1640 medium 70 μl was added into 96 well plastic plate (Corning Inc., U.S.). […] Finally, the test microorganism suspension 100 μl was added and incubated at 35° C. for 24 hours. […] When IC50 value without addition of FKI-1366 substance A, FKI-1366 substance B or FKI-1366 substance C was set as 1.0, a ratio of IC50 with addition of FKI-1366 substance A, FKI-1366 substance B or FKI-1366 substance C was determined as the enhancing activity."}, "[2]": {"tested_on": "Aspergillus niger ATCC 6275", "test": "Enhancing activity of azole antifungal agent, susceptibility test for conidiogenous fungi NCCLS M38-P (Alamar Blue)", "type": "cell-based", "conditions": "for enhancing action of the activity of azole antifungal agent (in words): Aspergillus niger ATCC 6275, summary statement", "experimental": "as §1\nEnhancing activity of azole antifungal agent on Aspergillus niger ATCC 6275 was determined by the drug susceptibility test method for conidiogenous fungi proposed by NCCLS (M38-P). Spores of the strain of Aspergillus niger ATCC 6275 were suspended in the physiological saline to maintain a value at OD 530 nm being 0.09-0.11. The suspension was further diluted 100 times with PRMI1640 medium to prepare inoculating microorganism solution. […] Further, FKI-1366 substance A, FKI-1366 substance B or FKI-1366 substance C, 10 μl, each of which was prepared for maintaining the final concentration of 2.5, 5.0 and 10 μg/ml, was added. Finally, the test microorganism suspension 80 μl was added. Alamar Blue solution (Asahi Glass Co., Japan) 20 μl, a coloring reagent, was added thereto and incubated at 35° C. for 24 hours. […] When IC50 value without addition of FKI-1366 substance A, FKI-1366 substance B or FKI-1366 substance C was set as 1.0, a ratio of IC50 with addition of FKI-1366 substance A, FKI-1366 substance B or FKI-1366 substance C was determined as the enhancing activity."}, "[3]": {"tested_on": "fluconazole resistant Candida albicans ATCC 64550", "type": "cell-based", "conditions": "for Ratio (enhancing activity): IC50 without addition set as 1.0; for enhancing action of the activity of azole antifungal agent (in words): fluconazole resistant C. albicans ATCC64550, summary statement", "experimental": "as §1, §2"}, "[4]": {"conditions": "DMSO, methanol, chloroform and ethyl acetate"}, "[5]": {"conditions": "Table 1, miconazole + FKI-1366 substance 0.5 μg/ml"}, "[6]": {"conditions": "Table 1, miconazole + FKI-1366 substance 1.0 μg/ml"}, "[7]": {"conditions": "Table 1, miconazole + FKI-1366 substance 2.0 μg/ml"}, "[8]": {"conditions": "Table 2 (fluconazole) + FKI-1366 substance 0.5 μg/ml"}, "[9]": {"conditions": "Table 2 (fluconazole) + FKI-1366 substance 1.0 μg/ml"}, "[10]": {"conditions": "Table 2 (fluconazole) + FKI-1366 substance 2.0 μg/ml"}, "[11]": {"conditions": "Table 1, miconazole + FKI-1366 substance 2.5 μg/ml, IC50 without addition set as 1.0"}, "[12]": {"conditions": "Table 1, miconazole + FKI-1366 substance 5.0 μg/ml, IC50 without addition set as 1.0"}, "[13]": {"conditions": "Table 1, miconazole + FKI-1366 substance 10 μg/ml, IC50 without addition set as 1.0"}, "[14]": {"conditions": "Table 2 (fluconazole) + FKI-1366 substance 2.5 μg/ml, IC50 without addition set as 1.0"}, "[15]": {"conditions": "Table 2 (fluconazole) + FKI-1366 substance 5.0 μg/ml, IC50 without addition set as 1.0"}, "[16]": {"conditions": "Table 2 (fluconazole) + FKI-1366 substance 10 μg/ml, IC50 without addition set as 1.0"}}, "note": "“And” between values parts separate entries of the source, which are not always exact repeats. Equal entries are not always repeated. Where two headings read alike, the source gives them in different places."}
{"smiles": "CC(C)C1OC(=O)C(Cc2ccccc2)N(C)C(=O)C(C(C)C)OC(=O)C(Cc2ccccc2)N(C)C(=O)C(C(C)C)OC(=O)C(Cc2ccccc2)NC1=O", "note": "(stereo not shown) [FKI-1366 substance A]", "values": [{"measurement": "Solubility in solvents", "setting": "Solubility in solvents; [4]", "result": "Soluble"}, {"measurement": "Solubility in solvents", "setting": "Solubility in solvents; water and n-hexane", "result": "Slightly soluble"}, {"measurement": "enhancing action of the activity of azole antifungal agent (in words)", "setting": "[1]", "result": "enhancing action"}, {"measurement": "Ratio (enhancing activity)", "setting": "[1]; [5]", "result": 1.0}, {"measurement": "Ratio (enhancing activity)", "setting": "[1]; [6]", "result": 1.4}, {"measurement": "Ratio (enhancing activity)", "setting": "[1]; [7]", "result": ">55"}, {"measurement": "Ratio (enhancing activity)", "setting": "[1]; [8]", "result": 1.0}, {"measurement": "Ratio (enhancing activity)", "setting": "[1]; [9]", "result": 1.4}, {"measurement": "Ratio (enhancing activity)", "setting": "[1]; [10]", "result": ">55"}, {"measurement": "enhancing action of the activity of azole antifungal agent (in words)", "setting": "[2]", "result": "enhancing action"}, {"measurement": "Ratio (enhancing activity)", "setting": "[2]; [11]", "result": 5.5}, {"measurement": "Ratio (enhancing activity)", "setting": "[2]; [12]", "result": 9.6}, {"measurement": "Ratio (enhancing activity)", "setting": "[2]; [13]", "result": 10.9}, {"measurement": "Ratio (enhancing activity)", "setting": "[2]; [14]", "result": 5.5}, {"measurement": "Ratio (enhancing activity)", "setting": "[2]; [15]", "result": 9.6}, {"measurement": "Ratio (enhancing activity)", "setting": "[2]; [16]", "result": 10.9}, {"measurement": "Ratio (enhancing activity)", "setting": "[3]; [5]", "result": 1.2}, {"measurement": "Ratio (enhancing activity)", "setting": "[3]; [6]", "result": 5.0}, {"measurement": "Ratio (enhancing activity)", "setting": "[3]; [7]", "result": ">60"}, {"measurement": "Ratio (enhancing activity)", "setting": "[3]; [8]", "result": 1.2}, {"measurement": "Ratio (enhancing activity)", "setting": "[3]; [9]", "result": 5.0}, {"measurement": "Ratio (enhancing activity)", "setting": "[3]; [10]", "result": ">60"}, {"measurement": "enhancing action of the activity of azole antifungal agent (in words)", "setting": "[3]", "result": "enhancing action"}]}
{"smiles": "CC(C)CC1NC(=O)C(C(C)C)OC(=O)C(Cc2ccccc2)N(C)C(=O)C(C(C)C)OC(=O)C(Cc2ccccc2)N(C)C(=O)C(C(C)C)OC1=O", "note": "(stereo not shown) [FKI-1366 substance B]", "values": [{"measurement": "Solubility in solvents", "setting": "Solubility in solvents; [4]", "result": "Soluble"}, {"measurement": "Solubility in solvents", "setting": "Solubility in solvents; water and n-hexane", "result": "Slightly soluble"}, {"measurement": "enhancing action of the activity of azole antifungal agent (in words)", "setting": "[1]", "result": "enhancing action"}, {"measurement": "Ratio (enhancing activity)", "setting": "[1]; [5]", "result": 1.7}, {"measurement": "Ratio (enhancing activity)", "setting": "[1]; [6]", "result": 6.0}, {"measurement": "Ratio (enhancing activity)", "setting": "[1]; [7]", "result": ">55"}, {"measurement": "Ratio (enhancing activity)", "setting": "[2]", "result": "1.8 and 2.4 and 3.5"}, {"measurement": "enhancing action of the activity of azole antifungal agent (in words)", "setting": "[2]", "result": "enhancing action"}, {"measurement": "Ratio (enhancing activity)", "setting": "[2]; [11]", "result": 1.8}, {"measurement": "Ratio (enhancing activity)", "setting": "[2]; [12]", "result": 2.4}, {"measurement": "Ratio (enhancing activity)", "setting": "[2]; [13]", "result": 3.5}, {"measurement": "Ratio (enhancing activity)", "setting": "[3]; [5]", "result": 1.4}, {"measurement": "Ratio (enhancing activity)", "setting": "[3]; [6]", "result": 4.2}, {"measurement": "Ratio (enhancing activity)", "setting": "[3]; [7]", "result": ">60"}, {"measurement": "Ratio (enhancing activity)", "setting": "[3]; [8]", "result": 1.4}, {"measurement": "Ratio (enhancing activity)", "setting": "[3]; [9]", "result": 4.2}, {"measurement": "Ratio (enhancing activity)", "setting": "[3]; [10]", "result": ">60"}, {"measurement": "enhancing action of the activity of azole antifungal agent (in words)", "setting": "[3]", "result": "enhancing action"}]}
{"smiles": "CC(C)CC1OC(=O)C(Cc2ccccc2)N(C)C(=O)C(C(C)C)OC(=O)C(Cc2ccccc2)N(C)C(=O)C(C(C)C)OC(=O)C(Cc2ccccc2)N(C)C1=O", "note": "(stereo not shown) [FKI-1366 substance C]", "values": [{"measurement": "Solubility in solvents", "setting": "Solubility in solvents; [4]", "result": "Soluble"}, {"measurement": "Solubility in solvents", "setting": "Solubility in solvents; water and n-hexane", "result": "Slightly soluble"}, {"measurement": "enhancing action of the activity of azole antifungal agent (in words)", "setting": "[1]", "result": "enhancing action"}, {"measurement": "Ratio (enhancing activity)", "setting": "[1]; [5]", "result": 1.0}, {"measurement": "Ratio (enhancing activity)", "setting": "[1]; [6]", "result": 2.5}, {"measurement": "Ratio (enhancing activity)", "setting": "[1]; [7]", "result": ">55"}, {"measurement": "Ratio (enhancing activity)", "setting": "[1]; [8]", "result": 1.0}, {"measurement": "Ratio (enhancing activity)", "setting": "[1]; [9]", "result": 2.5}, {"measurement": "Ratio (enhancing activity)", "setting": "[1]; [10]", "result": ">55"}, {"measurement": "enhancing action of the activity of azole antifungal agent (in words)", "setting": "[2]", "result": "enhancing action"}, {"measurement": "Ratio (enhancing activity)", "setting": "[2]; [11]", "result": 5.2}, {"measurement": "Ratio (enhancing activity)", "setting": "[2]; [12]", "result": 8.0}, {"measurement": "Ratio (enhancing activity)", "setting": "[2]; [13]", "result": 11.0}, {"measurement": "Ratio (enhancing activity)", "setting": "[2]; [14]", "result": 5.2}, {"measurement": "Ratio (enhancing activity)", "setting": "[2]; [15]", "result": 8.0}, {"measurement": "Ratio (enhancing activity)", "setting": "[2]; [16]", "result": 11.0}, {"measurement": "Ratio (enhancing activity)", "setting": "[3]; [5]", "result": 1.0}, {"measurement": "Ratio (enhancing activity)", "setting": "[3]; [6]", "result": 1.1}, {"measurement": "Ratio (enhancing activity)", "setting": "[3]; [7]", "result": 3.9}, {"measurement": "Ratio (enhancing activity)", "setting": "[3]; [8]", "result": 1.0}, {"measurement": "Ratio (enhancing activity)", "setting": "[3]; [9]", "result": 1.1}, {"measurement": "Ratio (enhancing activity)", "setting": "[3]; [10]", "result": 3.9}, {"measurement": "enhancing action of the activity of azole antifungal agent (in words)", "setting": "[3]", "result": "enhancing action"}]}
